Experimental data: ChEMBL document CHEMBL1138184, “Synthesis and structure-activity relationship studies of 1,3-diarylprop-2-yn-1-ones: dual inhibitors of cyclooxygenases and lipoxygenases” (J Med Chem, 2006)

Experiments:
[1] = target: T1, Seed linoleate 13S-lipoxygenase-1 (Glycine max, UniProt P08170)
T1 sequence (P08170 whole entry): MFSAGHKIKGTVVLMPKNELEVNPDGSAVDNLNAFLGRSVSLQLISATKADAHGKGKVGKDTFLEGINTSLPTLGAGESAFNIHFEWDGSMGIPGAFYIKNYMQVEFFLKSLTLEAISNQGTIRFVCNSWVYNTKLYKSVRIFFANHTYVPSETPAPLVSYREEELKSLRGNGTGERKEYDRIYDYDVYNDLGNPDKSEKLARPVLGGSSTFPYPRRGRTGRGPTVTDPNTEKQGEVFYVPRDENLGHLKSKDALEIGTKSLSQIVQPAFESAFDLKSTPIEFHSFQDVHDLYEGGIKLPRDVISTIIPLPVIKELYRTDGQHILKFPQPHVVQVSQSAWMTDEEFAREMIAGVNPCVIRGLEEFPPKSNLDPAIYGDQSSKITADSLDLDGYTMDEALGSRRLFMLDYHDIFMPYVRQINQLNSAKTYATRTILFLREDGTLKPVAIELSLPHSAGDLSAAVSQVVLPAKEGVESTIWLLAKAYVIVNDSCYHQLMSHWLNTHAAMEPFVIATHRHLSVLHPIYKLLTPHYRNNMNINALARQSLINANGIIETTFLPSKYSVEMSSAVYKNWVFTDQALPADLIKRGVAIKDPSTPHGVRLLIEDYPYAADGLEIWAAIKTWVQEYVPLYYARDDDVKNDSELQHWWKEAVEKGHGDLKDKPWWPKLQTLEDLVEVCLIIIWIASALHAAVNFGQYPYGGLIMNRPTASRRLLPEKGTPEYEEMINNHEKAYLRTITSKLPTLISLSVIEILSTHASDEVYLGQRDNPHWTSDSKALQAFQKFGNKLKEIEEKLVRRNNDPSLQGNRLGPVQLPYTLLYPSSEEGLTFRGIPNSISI
Description: Inhibitory activity against soybean 15LOX

Rattus norvegicus [2] = assay: Inhibitory activity against 4% NaCl-induced abdominal constriction in Sprague-Dawley rat after 60 min of 30 mg/kg, po; format: functional; conditions: Abdomen, 1 h
5-lipoxygenase = target: T2, 5-lipoxygenase (Solanum tuberosum, UniProt O49150); assay: Inhibitory activity against potato 5LOX
T2 sequence (O49150 whole entry): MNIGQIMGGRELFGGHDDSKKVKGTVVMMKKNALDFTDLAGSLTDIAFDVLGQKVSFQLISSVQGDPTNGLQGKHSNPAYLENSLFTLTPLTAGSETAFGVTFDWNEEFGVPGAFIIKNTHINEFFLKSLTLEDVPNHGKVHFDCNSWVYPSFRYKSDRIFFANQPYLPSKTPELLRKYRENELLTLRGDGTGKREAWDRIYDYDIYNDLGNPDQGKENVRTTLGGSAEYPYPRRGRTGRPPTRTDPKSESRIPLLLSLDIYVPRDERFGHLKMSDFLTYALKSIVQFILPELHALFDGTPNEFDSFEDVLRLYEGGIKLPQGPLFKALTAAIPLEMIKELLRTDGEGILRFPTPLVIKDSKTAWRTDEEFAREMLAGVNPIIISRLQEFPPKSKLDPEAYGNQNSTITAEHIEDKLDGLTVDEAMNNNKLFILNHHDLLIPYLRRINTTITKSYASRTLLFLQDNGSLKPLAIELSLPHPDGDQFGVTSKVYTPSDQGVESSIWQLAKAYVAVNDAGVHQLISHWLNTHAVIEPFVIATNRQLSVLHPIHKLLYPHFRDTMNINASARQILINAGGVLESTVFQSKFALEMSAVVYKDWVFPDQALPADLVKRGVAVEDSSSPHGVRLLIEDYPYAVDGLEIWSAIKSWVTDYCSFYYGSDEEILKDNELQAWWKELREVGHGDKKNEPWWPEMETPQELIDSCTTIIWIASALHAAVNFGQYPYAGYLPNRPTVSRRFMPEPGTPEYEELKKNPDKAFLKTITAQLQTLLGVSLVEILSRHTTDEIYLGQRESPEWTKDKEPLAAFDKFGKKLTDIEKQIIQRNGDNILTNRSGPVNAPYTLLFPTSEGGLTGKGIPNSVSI

Rattus norvegicus [3] = assay: Anti-inflammatory activity against carrageenan-induced edema in Sprague-Dawley rat paw after 3 hrs of 30 mg/kg, po; format: functional
Rattus norvegicus [4] = assay: Inhibitory activity against 4% NaCl-induced abdominal constriction in Sprague-Dawley rat after 30 min of 30 mg/kg, po; format: functional; conditions: Abdomen, 0.5 h
[5] = target: T3, Prostaglandin G/H synthase 1 (Ovis aries, UniProt P05979); assay: Inhibitory activity against ovine COX1
T3 sequence (P05979 whole entry): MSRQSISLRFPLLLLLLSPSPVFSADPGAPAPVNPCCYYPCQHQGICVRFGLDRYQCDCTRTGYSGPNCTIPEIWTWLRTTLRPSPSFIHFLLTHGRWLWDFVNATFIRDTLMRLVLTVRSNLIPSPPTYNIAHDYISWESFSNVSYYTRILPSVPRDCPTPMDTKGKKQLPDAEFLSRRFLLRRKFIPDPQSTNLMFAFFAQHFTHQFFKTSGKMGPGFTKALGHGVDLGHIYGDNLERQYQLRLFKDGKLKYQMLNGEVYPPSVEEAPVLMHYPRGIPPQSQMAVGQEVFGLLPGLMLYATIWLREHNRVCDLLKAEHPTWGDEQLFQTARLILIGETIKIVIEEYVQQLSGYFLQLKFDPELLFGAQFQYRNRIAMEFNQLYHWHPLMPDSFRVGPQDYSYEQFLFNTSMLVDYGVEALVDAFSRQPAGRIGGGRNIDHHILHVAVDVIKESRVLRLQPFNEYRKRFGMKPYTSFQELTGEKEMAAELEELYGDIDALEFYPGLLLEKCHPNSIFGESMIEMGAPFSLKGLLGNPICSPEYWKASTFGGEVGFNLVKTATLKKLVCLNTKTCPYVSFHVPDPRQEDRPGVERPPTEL

Rattus norvegicus [6] = species on record: Rattus norvegicus; assay: animal or person; conditions: Sprague-Dawley, Abdomen, po, 0.5 h, read-out: Inhibition
Description: Inhibitory activity against 4% NaCl-induced abdominal constriction in Sprague-Dawley rat after 30 min of 5 mg/kg, po

| SMILES | IC50 [1] | inhibition in vivo at 30 mg/kg (Rattus norvegicus [2]) | IC50 (5-lipoxygenase) | inhibition in vivo at 30 mg/kg (Rattus norvegicus [3]) | inhibition in vivo at 30 mg/kg (Rattus norvegicus [4]) | IC50 [5] | ED50 (Rattus norvegicus [3]) | inhibition in vivo at 5 mg/kg (Rattus norvegicus [6]) |
| --- | --- | --- | --- | --- | --- | --- | --- | --- |
| COc1ccc(C(=O)C#Cc2ccc(S(C)(=O)=O)cc2)c2ccccc12 | 0.3 µM | 36.7% | > 10 µM | 24% | 56.7% | > 100 µM |  |  |
| COc1cc(C(=O)C#Cc2ccc(S(C)(=O)=O)cc2)cc(OC)c1OC |  | 46.2% | 7 µM | 35.7% | 60.2% |  | 113 mg/kg |  |
| CS(=O)(=O)c1ccc(C#CC(=O)c2ccc(F)cc2)cc1 |  | 72% | > 10 µM | 26.3% | 83.8% |  |  |  |
| Cc1ccc(C(=O)C#Cc2ccc(S(C)(=O)=O)cc2)cc1 |  |  | > 10 µM |  |  |  |  |  |
| COc1ccc(C(=O)C#Cc2ccc(S(C)(=O)=O)cc2)cc1 |  | 38.6% | > 10 µM | 30.2% | 42.7% |  | 60.1 mg/kg |  |
| CS(=O)(=O)c1ccc(C#CC(=O)c2ccc(S(C)(=O)=O)cc2)cc1 | > 10 µM |  | > 10 µM |  |  | > 100 µM |  |  |
| COc1ccc(C(=O)C#Cc2ccc(S(C)(=O)=O)cc2)cc1OC | > 10 µM |  | 1 µM |  |  | 3.3 µM |  |  |
| CS(=O)(=O)c1ccc(C#CC(=O)c2ccc(F)c(F)c2)cc1 |  | 46.1% | 0.4 µM | 6.8% | 50.8% |  |  |  |
| CS(=O)(=O)c1ccc(C#CC(=O)c2cccc(O)c2)cc1 |  |  | 0.3 µM |  |  |  |  |  |
| COC(=O)c1ccc(C(=O)C#Cc2ccc(S(C)(=O)=O)cc2)cc1 | 5 µM | 71.2% | > 10 µM | 21.5% | 56.2% | > 100 µM |  |  |
| CS(=O)(=O)c1ccc(C#CC(=O)c2ccc(O)cc2)cc1 |  | 56.6% | 0.3 µM | 37.4% | 52.4% |  | 51.3 mg/kg |  |
| CC(C)c1ccc(C(=O)C#Cc2ccc(S(C)(=O)=O)cc2)cc1 | 0.36 µM | 53.7% |  | 48.1% | 40.7% | 9.2 µM | 35 mg/kg |  |
| O=C(O)/C=C/c1ccc(O)c(O)c1 [CAFFEIC ACID] |  | 58.3% |  | 8.2% | 47.2% |  |  |  |
| COc1cc(C(=O)C#Cc2ccc(S(C)(=O)=O)cc2)ccc1O |  | 45.8% | > 10 µM | 26% | 15.4% |  |  |  |
| CSc1ccc(C(=O)C#Cc2ccc(S(C)(=O)=O)cc2)cc1 | 0.36 µM |  |  |  |  | 9.2 µM |  |  |
| COc1ccc(C(=O)C#Cc2ccc(S(C)(=O)=O)cc2)cc1O |  |  | > 10 µM |  |  |  |  |  |
| COc1cccc(C(=O)C#Cc2ccc(S(C)(=O)=O)cc2)c1 |  | 54.7% | 9 µM | 24.2% | 72.6% |  |  |  |
| CCCc1ccc(C(=O)C#Cc2ccc(S(C)(=O)=O)cc2)cc1 | 3.2 µM |  | 3.2 µM |  |  | 3.2 µM |  |  |
| CS(=O)(=O)c1ccc(C#CC(=O)c2cccc3ccccc23)cc1 | > 10 µM | 40.3% | > 10 µM | 8.8% | 56.4% | > 100 µM |  |  |
| CS(=O)(=O)c1ccc(C#CC(=O)c2ccoc2)cc1 | > 10 µM | 76.6% | 0.1 µM | 26.4% | 57.7% | 1 µM |  |  |
| CS(=O)(=O)c1ccc(C#CC(=O)c2ccc(C(F)(F)F)cc2)cc1 |  | 66.2% | > 10 µM | 16.2% | 38% |  |  |  |
| CS(=O)(=O)c1ccc(C#CC(=O)c2cccc([N+](=O)[O-])c2)cc1 | 3.5 µM |  | > 10 µM |  |  | 2 µM |  |  |
| CCCCc1ccc(C(=O)C#Cc2ccc(S(C)(=O)=O)cc2)cc1 | > 10 µM |  | 4.5 µM |  |  | > 100 µM |  |  |
| Cc1ccc(-c2cc(C(F)(F)F)nn2-c2ccc(S(N)(=O)=O)cc2)cc1 [CELECOXIB] |  |  |  |  |  |  |  | 69.3% |
| CC(=O)Oc1ccccc1C(=O)O [ASPIRIN] |  | 46.4% |  |  | 29.7% |  | 129 mg/kg |  |
| CS(=O)(=O)c1ccc(C#CC(=O)c2ccc([N+](=O)[O-])cc2)cc1 | > 10 µM |  | 6.2 µM |  |  | 0.25 µM |  |  |
| CS(=O)(=O)c1ccc(C#CC(=O)c2ccc(C#N)cc2)cc1 |  | 36.2% |  | 29.6% | 48.6% |  | 90 mg/kg |  |
| CS(=O)(=O)c1ccc(C#CC(=O)c2ccno2)cc1 | > 10 µM |  | 1.5 µM |  |  | 32.2 µM |  |  |
| CC(Cc1ccc(O)c(O)c1)C(C)Cc1ccc(O)c(O)c1 (stereo unspecified) [NORDIHYDROGUAIARETIC ACID] |  | 62.5% |  | 15.1% | 45.8% |  | 205 mg/kg |  |
